Measured values from patent US7897326B2, “Peroxisome-proliferator activated receptor-alpha agonists for organ preservation” (University of Pittsburgh-of the Commonwealth System of …, priority 2006, dated 2011).
Structures can show the parent of a compound that is named as a salt.

Tests used:
[1] = system: rat kidneys; test: Light microscopy histology of isolated rat kidneys perfused 12 hours at 37° C. with L-15; conditions: for histological preservation as assessed by light microscopy (screen of pharmacological agents): agent added to L-15 perfusate, 12-hour perfusion at 37° C.; for histology at the light microscopic level / histology score (0 = unrecognizable micro-structure, 10 = 30-minute flushed kidney), FIG. 1: mannitol 20 grams/L, gemfibrozil 50 mg/L, 12-hour perfusion; for histology at the light microscopic level: vs L-15 alone; for histology score (0 = unrecognizable micro-structure, 10 = 30-minute flushed kidney), FIG. 1: blinded observer
Experimental: Animals. Male Sprague-Dawley rats, 15 to 20 weeks-of-age, were housed in a University of Pittsburgh Medical Center animal care facility (temperature 22 EC; light cycle 12 hours; relative humidity 55%). Animals were fed Pro Laboratory RMH 3000 rodent diet (PMI Nutrition Inc., St. Louis, Mo.) and were given water ad libitum. Institutional guidelines for animal welfare were followed, and the Institutional Animal Care and Use Committee approved experimental protocols.
Preparation of Perfusion System. Due to bacterial infection associated with chronic kidney perfusion at 37° C., rat kidneys were perfused in a sterile environment. A glass perfusion system (Hugo Sachs Elektronik-Harvard Apparatus GmbH), which allowed for autoclaving and ultraviolet-light sterilization without damage to the structural integrity of the system, was used in all experiments. This system included the following components arranged in series: a jacketed glass perfusate reservoir for warming and initial oxygenation of perfusate; a jacketed glass-oxygenator for additional oxygenation; a Windkessel chamber for absorption of pulsations; a jacketed heat exchanger for warming the perfusate and trapping bubbles just before the perfusate enters the kidney; and a jacketed organ chamber to keep the kidney's surrounding environment at 37° C.
Drug Preparation. Leibovitz L-15 cell culture medium (Sigma, St. Louis, Mo.) was mixed according to the manufacture's specifications to make 2 liters and 120 mg of penicillin was added. The pH of one liter of L-15 was adjusted to 7.4, and this solution was used during the kidney isolation procedure. The other liter was further prepared with addition of various pharmacological agents, and then the pH adjusted to 7.4. Both solutions were then filtered (0.22 microns) into 1 liter containers. The solution with the experimental drug was then perfused through the kidney perfusion system at a rate of 2.6 ml/min. The other solution was placed underneath the hood where the surgery was to be done.
Kidney Isolation. Kidneys were isolated under a laminar flow hood (Labconco) fitted with a separate roller pump. The operator used sterilized latex gloves with frequent application of 75% alcohol to gloves and instruments throughout the course of the surgery. Gloves were replaced anytime the operator's hands left the surgical hood. Animals were anesthetized with Inactin (90 mg/kg, ip; Sigma), the abdomen was shaved, washed with 75% alcohol, and covered with autoclaved paper towels. The tubing, which would eventually be required for isolation, was assembled and placed in the roller pump. This tubing consisted of three sequentially smaller sections, the middle of which was the pump tubing (Harvard Apparatus). The smallest of the sections was linked, using an adaptor connector, to PE-50 tubing (which had been previously soaked in alcohol for at least 2 days). This PE-50 tubing was for insertion into the renal artery. The largest size tubing was placed into the 1 liter of room temperature L-15. The pump was turned on for a brief time, allowing all tubing to be filled with L-15 medium to remove all air bubbles from the tubing. The skin covering the abdominal cavity was cut horizontally. A light spray of alcohol was applied to the area to remove pieces of hair, followed by a horizontal cut in the same area through the muscle; exposing the internal organs. A section of sterile gauze was set to the left of the animal, and the large/small intestines were gently pulled out of the abdominal cavity and wrapped in the gauze. […] All side branches of the renal artery and vein were ligated and cut. Next, the aorta, vena cava, renal artery and renal vein were identified, cleaned of fat and connective tissue and dissected free, and ligatures were loosely placed around these vessels. […]

[2] = system: rat kidney tissue; test: Electron microscopy of isolated rat kidneys perfused 12 hours with L-15; conditions: one kidney per group; mannitol 20 grams/L, gemfibrozil 50 mg/L; vs L-15 alone
Experimental: Drug Preparation. Leibovitz L-15 cell culture medium (Sigma, St. Louis, Mo.) was mixed according to the manufacture's specifications to make 2 liters and 120 mg of penicillin was added. The pH of one liter of L-15 was adjusted to 7.4, and this solution was used during the kidney isolation procedure. The other liter was further prepared with addition of various pharmacological agents, and then the pH adjusted to 7.4. Both solutions were then filtered (0.22 microns) into 1 liter containers. The solution with the experimental drug was then perfused through the kidney perfusion system at a rate of 2.6 ml/min. The other solution was placed underneath the hood where the surgery was to be done. Kidney Isolation. Kidneys were isolated under a laminar flow hood (Labconco) fitted with a separate roller pump. The operator used sterilized latex gloves with frequent application of 75% alcohol to gloves and instruments throughout the course of the surgery. Gloves were replaced anytime the operator's hands left the surgical hood. Animals were anesthetized with Inactin (90 mg/kg, ip; Sigma), the abdomen was shaved, washed with 75% alcohol, and covered with autoclaved paper towels. The tubing, which would eventually be required for isolation, was assembled and placed in the roller pump. This tubing consisted of three sequentially smaller sections, the middle of which was the pump tubing (Harvard Apparatus). The smallest of the sections was linked, using an adaptor connector, to PE-50 tubing (which had been previously soaked in alcohol for at least 2 days). This PE-50 tubing was for insertion into the renal artery. The largest size tubing was placed into the 1 liter of room temperature L-15. The pump was turned on for a brief time, allowing all tubing to be filled with L-15 medium to remove all air bubbles from the tubing. The skin covering the abdominal cavity was cut horizontally. A light spray of alcohol was applied to the area to remove pieces of hair, followed by a horizontal cut in the same area through the muscle; exposing the internal organs. A section of sterile gauze was set to the left of the animal, and the large/small intestines were gently pulled out of the abdominal cavity and wrapped in the gauze. […] All side branches of the renal artery and vein were ligated and cut. Next, the aorta, vena cava, renal artery and renal vein were identified, cleaned of fat and connective tissue and dissected free, and ligatures were loosely placed around these vessels. The infra-renal aorta was ligated, a small clamp was placed on the aorta just above the ligation but below the renal artery, a cut was made between the clamp and ligation, and the PE-50 tubing was inserted, secured with a ligature and advanced into the left renal artery. […]

[3] = system: Na+-K+-ATPase-α1; test: Western blotting and densitometry of Na+-K+-ATPase-α1 in 12-hour perfused rat kidneys; conditions: mannitol 20 grams/L, gemfibrozil 50 mg/L; 12-hour perfusion
Experimental: (§1) Drug Preparation. Leibovitz L-15 cell culture medium (Sigma, St. Louis, Mo.) was mixed according to the manufacture's specifications to make 2 liters and 120 mg of penicillin was added. The pH of one liter of L-15 was adjusted to 7.4, and this solution was used during the kidney isolation procedure. The other liter was further prepared with addition of various pharmacological agents, and then the pH adjusted to 7.4. Both solutions were then filtered (0.22 microns) into 1 liter containers. The solution with the experimental drug was then perfused through the kidney perfusion system at a rate of 2.6 ml/min. The other solution was placed underneath the hood where the surgery was to be done. Kidney Isolation. Kidneys were isolated under a laminar flow hood (Labconco) fitted with a separate roller pump. The operator used sterilized latex gloves with frequent application of 75% alcohol to gloves and instruments throughout the course of the surgery. Gloves were replaced anytime the operator's hands left the surgical hood. Animals were anesthetized with Inactin (90 mg/kg, ip; Sigma), the abdomen was shaved, washed with 75% alcohol, and covered with autoclaved paper towels. The tubing, which would eventually be required for isolation, was assembled and placed in the roller pump. This tubing consisted of three sequentially smaller sections, the middle of which was the pump tubing (Harvard Apparatus). […]

[4] = system: rat kidneys; test: Perfusion pressure of isolated perfused rat kidney over 12 hours; conditions: mannitol 20 grams/L, gemfibrozil 50 mg/L
Experimental: Drug Preparation. Leibovitz L-15 cell culture medium (Sigma, St. Louis, Mo.) was mixed according to the manufacture's specifications to make 2 liters and 120 mg of penicillin was added. The pH of one liter of L-15 was adjusted to 7.4, and this solution was used during the kidney isolation procedure. The other liter was further prepared with addition of various pharmacological agents, and then the pH adjusted to 7.4. Both solutions were then filtered (0.22 microns) into 1 liter containers. The solution with the experimental drug was then perfused through the kidney perfusion system at a rate of 2.6 ml/min. The other solution was placed underneath the hood where the surgery was to be done. Kidney Isolation. Kidneys were isolated under a laminar flow hood (Labconco) fitted with a separate roller pump. The operator used sterilized latex gloves with frequent application of 75% alcohol to gloves and instruments throughout the course of the surgery. Gloves were replaced anytime the operator's hands left the surgical hood. Animals were anesthetized with Inactin (90 mg/kg, ip; Sigma), the abdomen was shaved, washed with 75% alcohol, and covered with autoclaved paper towels. The tubing, which would eventually be required for isolation, was assembled and placed in the roller pump. This tubing consisted of three sequentially smaller sections, the middle of which was the pump tubing (Harvard Apparatus). The smallest of the sections was linked, using an adaptor connector, to PE-50 tubing (which had been previously soaked in alcohol for at least 2 days). This PE-50 tubing was for insertion into the renal artery. The largest size tubing was placed into the 1 liter of room temperature L-15. The pump was turned on for a brief time, allowing all tubing to be filled with L-15 medium to remove all air bubbles from the tubing. The skin covering the abdominal cavity was cut horizontally. A light spray of alcohol was applied to the area to remove pieces of hair, followed by a horizontal cut in the same area through the muscle; exposing the internal organs. […]

[5] = system: rat kidneys; test: Urine collection from isolated perfused rat kidney; conditions: 12 hours of perfusion; mannitol 20 grams/L, gemfibrozil 50 mg/L
Experimental: as §1

[6] = system: rat kidneys; test: Apoptag (TUNEL) staining for apoptosis in 12-hour perfused rat kidneys; conditions: mannitol 20 grams/L, gemfibrozil 50 mg/L; vs L-15 alone
Experimental: as §1

| Structure (SMILES) | histological preservation as assessed by light microscopy (screen of pharmacological agents) [1] | histology at the light microscopic level [1] | histology score (0 = unrecognizable micro-structure, 10 = 30-minute flushed kidney), FIG. 1 [1] | glomerular ultrastructure (electron microscopy) [2] | tubular ultrastructure (electron microscopy) [2] | Na+-K+-ATPase-α1 expression normalized to β-actin, FIG. 2 [3] | rapid increase in perfusion pressure observed in L-15 alone kidneys, FIG. 3 [4] | total urine volume, FIG. 4C [5] | degree of apoptosis (Apoptag staining) [6] | initial renal perfusion pressure, FIG. 3 ([4]; L-15 alone approximately 50 mm Hg) |
| --- | --- | --- | --- | --- | --- | --- | --- | --- | --- | --- |
| C[C@]12CCC(=O)C=C1CC[C@@H]1[C@@H]2[C@@H](O)C[C@]2(C=O)[C@@H](C(=O)CO)CC[C@@H]12 [Aldosterone, aldosterone] | mild protection |  |  |  |  |  |  |  |  |  |
| NC(=O)c1cccc(N)c1 [3-aminobenzamide] | mild protection |  |  |  |  |  |  |  |  |  |
| Cc1ccc(C)c(OCCCC(C)(C)C(=O)O)c1 [gemfibrozil] | moderate histological preservation | modestly improved | statistically significantly improved the histological score | slightly improved | only marginally better | slightly higher | delayed | increased total urine volume | reduced the degree of apoptosis |  |
| O=c1[nH]c(=O)c2[nH]c(=O)[nH]c2[nH]1 [uric acid] | mild protection |  |  |  |  |  |  |  |  |  |
| Nc1cc(N2CCCCC2)nc(N)[n+]1OS(=O)(=O)[O-] [minoxidil sulfate] | mild protection |  |  |  |  |  |  |  |  |  |
| OC[C@@H](O)[C@@H](O)[C@H](O)[C@H](O)CO [mannitol] | moderate histological preservation | modestly improved | did not achieve statistical significance | slightly improved | only marginally better | nearly undetectable | more so | increased total urine volume | reduced the degree of apoptosis | approximately 25 mm Hg |
